Several values for one entry are separate records, joined by “and”; a condition that tells them apart may be missing. Equal values may be shown once. Inconclusive results and toxic doses are left out. Cut-off read from the data, not from the text of the source: active = T/C of 150% or more; inactive = T/C below 125%.
Test system: L1210 leukemia ip in BDF1 mice, survival T/C
Assay: NCI In Vivo Anticancer Drug Screen. Data for tumor model L1210 Leukemia (intraperitoneal) in B6D2F1 (BDF1) mice
Details: endpoint: mean survival time, higher = longer survival
How it was run: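 Antitumor effect is assessed in tumor-bearing animals. Survival in the compound arm is compared with a vehicle-dosed control arm and expressed as their quotient.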

[1] = dose: 100.0 mg/kg/injection, schedule: Q01DX009 (ip), vehicle: Klucel (hydroxypropylcellulose) (HPC)
[2] = dose: 100.0 mg/kg/injection, schedule: Q04DX003 (ip), vehicle: Klucel (hydroxypropylcellulose) (HPC)
[3] = dose: 200.0 mg/kg/injection, schedule: Q01DX009 (ip), vehicle: Klucel (hydroxypropylcellulose) (HPC)
[4] = dose: 200.0 mg/kg/injection, schedule: Q04DX003 (ip), vehicle: Klucel (hydroxypropylcellulose) (HPC)
[5] = dose: 100.0 mg/kg/injection, schedule: Q01DX009 (ip), vehicle: saline with Tween-80
[6] = dose: 200.0 mg/kg/injection, schedule: Q01DX009 (ip), vehicle: saline with Tween-80
[7] = dose: 200.0 mg/kg/injection, schedule: Q04DX003 (ip), vehicle: saline with Tween-80
[8] = dose: 400.0 mg/kg/injection, schedule: Q04DX003 (ip), vehicle: Klucel (hydroxypropylcellulose) (HPC)
[9] = dose: 100.0 mg/kg/injection, schedule: Q01DX001 (ip), vehicle: saline
[10] = dose: 200.0 mg/kg/injection, schedule: Q01DX001 (ip), vehicle: saline
[11] = dose: 400.0 mg/kg/injection, schedule: Q01DX001 (ip), vehicle: saline
[12] = dose: 400.0 mg/kg/injection, schedule: Q01DX009 (ip), vehicle: saline with Tween-80

Measured: T/C

CC/C(=N\NS(=O)(=O)c1ccc(C)cc1)C(C)C
inactive: dose: 75.0 mg/kg/injection, schedule: Q01DX001 (ip), vehicle: saline 95 % of control | dose: 75.0 mg/kg/injection, schedule: Q04DX003 (ip), vehicle: saline 91 % of control | dose: 150.0 mg/kg/injection, schedule: Q01DX001 (ip), vehicle: saline 95 % of control | dose: 150.0 mg/kg/injection, schedule: Q04DX003 (ip), vehicle: saline 100 % of control | dose: 300.0 mg/kg/injection, schedule: Q01DX001 (ip), vehicle: saline 97 % of control | dose: 300.0 mg/kg/injection, schedule: Q04DX003 (ip), vehicle: saline 96 % of control

O/C(=C/C(=S)S)c1ccco1
inactive: dose: 25.0 mg/kg/injection, schedule: Q01DX009 (ip), vehicle: water 87 % of control | dose: 50.0 mg/kg/injection, schedule: Q01DX009 (ip), vehicle: water 93 % of control | dose: 100.0 mg/kg/injection, schedule: Q01DX009 (ip), vehicle: water 88 % of control | dose: 200.0 mg/kg/injection, schedule: Q01DX009 (ip), vehicle: water 90 % of control | dose: 400.0 mg/kg/injection, schedule: Q01DX009 (ip), vehicle: water 93 % of control

c1ccc(CNCc2ccccc2)cc1
inactive: dose: 50.0 mg/kg/injection, schedule: Q01DX009 (ip), vehicle: Klucel (hydroxypropylcellulose) (HPC) 93 % of control | [1] 93 % of control | [2] 95 % of control | [3] 100 % of control | [4] 95 % of control

COc1cccc(/C=N/NC(=O)CNC(=O)Nc2cccc([N+](=O)[O-])c2)c1OC
inactive: dose: 50.0 mg/kg/injection, schedule: Q01DX009 (ip), vehicle: saline with Tween-80 89 % of control | [5] 96 % of control | [6] 89 % of control

CCC1=CCN2CCC34c5cc(C6(C(=O)OC)CC7CC(CC)CN(CCc8c6[nH]c6ccccc86)C7)c(OC)cc5N(C)C3C(O)(C(=O)OC)C(OC(C)=O)C1C24 (stereo not drawn)
inactive: dose: 0.8 mg/kg/injection, schedule: Q01DX001 (ip), vehicle: saline 100 % of control | dose: 1.6 mg/kg/injection, schedule: Q01DX001 (ip), vehicle: saline 100 % of control | dose: 3.2 mg/kg/injection, schedule: Q01DX001 (ip), vehicle: saline 101 % of control | dose: 6.4 mg/kg/injection, schedule: Q01DX001 (ip), vehicle: saline 97 % of control

CC(=O)OC(C)CC[P+](c1ccccc1)(c1ccccc1)c1ccccc1 (stereo not drawn)
inactive: dose: 75.0 mg/kg/injection, schedule: Q01DX001 (ip), vehicle: other 104 % of control | dose: 150.0 mg/kg/injection, schedule: Q01DX001 (ip), vehicle: other 106 % of control

CN(C)c1ccc(/C=N/NC(N)=S)nc1
inactive: dose: 5.0 mg/kg/injection, schedule: Q03HX032 (ip), vehicle: saline with Tween-80 116 % of control | dose: 19.0 mg/kg/injection, schedule: Q04DX003 (ip), vehicle: saline with Tween-80 110 % of control | dose: 67.0 mg/kg/injection, schedule: Q04DX003 (ip), vehicle: saline with Tween-80 118 % of control | [7] 113 % of control
active: dose: 12.0 mg/kg/injection, schedule: Q03HX032 (ip), vehicle: saline with Tween-80 158 % of control | dose: 18.0 mg/kg/injection, schedule: Q03HX032 (ip), vehicle: saline with Tween-80 188 % of control and 320 % of control | dose: 44.0 mg/kg/injection, schedule: Q04DX003 (ip), vehicle: saline with Tween-80 162 % of control

N=C(CC(=O)Nc1ccccn1)c1ccccc1
inactive: dose: 100.0 mg/kg/injection, schedule: Q01DX001 (ip), vehicle: other 100 % of control | dose: 200.0 mg/kg/injection, schedule: Q01DX001 (ip), vehicle: other 107 % of control | dose: 400.0 mg/kg/injection, schedule: Q01DX001 (ip), vehicle: other 89 % of control

C[C@]1(O)CC[C@H]2[C@@H]3CC[C@@H]4C[C@H](O)CC[C@]4(C)[C@@]3(F)[C@@H](O)C[C@@]21C
inactive: dose: 50.0 mg/kg/injection, schedule: Q01DX Z (sc), vehicle: steriod suspending solution 107 % of control | dose: 250.0 mg/kg/injection, schedule: Q01DX Z (sc), vehicle: steriod suspending solution 101 % of control | dose: 500.0 mg/kg/injection, schedule: Q01DX Z (sc), vehicle: steriod suspending solution 95 % of control

CCCCCCCC(O)CCC (stereo not drawn)
inactive: [1] 94 % of control | [2] 100 % of control | [3] 104 % of control | [4] 97 % of control | [8] 92 % of control

CC(=O)Oc1ccc(CC(C(=O)O)c2ccccc2)cc1 (stereo not drawn)
inactive: [9] 107 % of control | [1] 91 % of control | [2] 100 % of control | [10] 101 % of control | [3] 109 % of control | [4] 96 % of control | [11] 113 % of control | dose: 400.0 mg/kg/injection, schedule: Q01DX009 (ip), vehicle: Klucel (hydroxypropylcellulose) (HPC) 95 % of control | [8] 96 % of control

COC1OCC(O)C(NC(C)=O)C1O (stereo not drawn)
inactive: [9] 105 % of control | [10] 107 % of control | [11] 100 % of control

Cc1cc(C(C)(C)CC(C)(C)C)cc(O)c1O
inactive: dose: 100.0 mg/kg/injection, schedule: Q01DX009 (ip), vehicle: other 94 % of control | dose: 100.0 mg/kg/injection, schedule: Q04DX003 (ip), vehicle: other 96 % of control | dose: 200.0 mg/kg/injection, schedule: Q01DX009 (ip), vehicle: other 94 % of control | dose: 200.0 mg/kg/injection, schedule: Q04DX003 (ip), vehicle: other 93 % of control | dose: 400.0 mg/kg/injection, schedule: Q01DX009 (ip), vehicle: other 94 % of control | dose: 400.0 mg/kg/injection, schedule: Q04DX003 (ip), vehicle: other 91 % of control

CC(C)N1CSC(=S)N(C(C)C)C1
inactive: dose: 100.0 mg/kg/injection, schedule: Q04DX002 (ip), vehicle: other 89 % of control | dose: 200.0 mg/kg/injection, schedule: Q04DX002 (ip), vehicle: other 100 % of control | dose: 400.0 mg/kg/injection, schedule: Q04DX002 (ip), vehicle: other 107 % of control

CN(C)c1ccc2nc(C(=O)O)c(=O)n(C)c2c1
inactive: dose: 100.0 mg/kg/injection, schedule: Q01DX001 (ip), vehicle: Klucel (hydroxypropylcellulose) (HPC) 101 % of control | dose: 200.0 mg/kg/injection, schedule: Q01DX001 (ip), vehicle: Klucel (hydroxypropylcellulose) (HPC) 97 % of control

NC(=S)N/N=C/c1ccc[nH]1
inactive: dose: 100.0 mg/kg/injection, schedule: Q01DX001 (ip), vehicle: saline with Tween-80 93 % of control | dose: 200.0 mg/kg/injection, schedule: Q01DX001 (ip), vehicle: saline with Tween-80 98 % of control

CCC(C(O)c1ccccc1)C(O)(C(F)(F)F)C(F)(F)F (stereo not drawn)
inactive: dose: 75.0 mg/kg/injection, schedule: Q01DX009 (ip), vehicle: saline with Tween-80 100 % of control | dose: 150.0 mg/kg/injection, schedule: Q01DX009 (ip), vehicle: saline with Tween-80 106 % of control | dose: 300.0 mg/kg/injection, schedule: Q01DX009 (ip), vehicle: saline with Tween-80 103 % of control

O=C(O)c1cc2ccccc2c2cc(Br)ccc12
inactive: dose: 100.0 mg/kg/injection, schedule: Q01DX009 (ip), vehicle: saline sonified 100 % of control | [2] 91 % of control | dose: 200.0 mg/kg/injection, schedule: Q01DX009 (ip), vehicle: saline sonified 97 % of control | [4] 108 % of control | [8] 103 % of control

Cc1cc(=O)[nH]c(O)c1C#N
inactive: [5] 98 % of control | [6] 108 % of control | [12] 98 % of control

O=[N+]([O-])C1CC(Cl)CCC1SSC1CCC(Cl)CC1[N+](=O)[O-] (stereo not drawn)
inactive: dose: 100.0 mg/kg/injection, schedule: Q04DX002 (ip), vehicle: saline with Tween-80 95 % of control | dose: 200.0 mg/kg/injection, schedule: Q04DX002 (ip), vehicle: saline with Tween-80 98 % of control | dose: 400.0 mg/kg/injection, schedule: Q04DX002 (ip), vehicle: saline with Tween-80 92 % of control

COc1ccc(C(C)c2ccccc2)cc1C(C)c1ccccc1 (stereo not drawn)
inactive: [5] 93 % of control | dose: 100.0 mg/kg/injection, schedule: Q04DX003 (ip), vehicle: saline with Tween-80 98 % of control | [6] 95 % of control | [7] 89 % of control | [12] 88 % of control | dose: 400.0 mg/kg/injection, schedule: Q04DX003 (ip), vehicle: saline with Tween-80 98 % of control
